Measured values from article PMC5963671, “Hes1 inhibitor isolated by target protein oriented natural products isolation (TPO-NAPI) of differentiation activators of neural stem cells† †Electronic supplementary information (ESI) available. See DOI: 10.1039/c5sc03540f” (Chemical Science, 2015).

T1: Hes1 (Rattus norvegicus, UniProt Q04666)
T1 construct: Rat-Hes1 (residues 3-281)
T1 sequence (Q04666 3-281): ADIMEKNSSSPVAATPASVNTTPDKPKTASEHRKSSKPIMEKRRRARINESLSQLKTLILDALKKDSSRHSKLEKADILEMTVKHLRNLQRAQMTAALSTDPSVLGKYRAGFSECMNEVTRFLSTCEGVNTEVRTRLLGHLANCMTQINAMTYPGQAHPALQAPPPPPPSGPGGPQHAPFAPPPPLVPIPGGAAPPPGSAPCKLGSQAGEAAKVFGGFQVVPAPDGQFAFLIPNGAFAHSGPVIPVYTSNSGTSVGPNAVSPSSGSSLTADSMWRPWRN


Key:
Hes1 [1] = molecular target: T1, Hes1; experiment: Hes1 dimer fluorescence plate assay (Cy3-Hes1); binding also shown by GST-Hes1 beads-HPLC with truncated proteins
Hes1 [2] = molecular target: T1, Hes1; experiment: Hes1 dimer fluorescence plate assay (Cy3-Hes1); binding also shown by GST-Hes1 beads-HPLC
Hes1 [3] = molecular target: T1, Hes1; experiment: biochemical; parameters: Fluorescence plate assay of Hes1 dimer formation, immobilized Hes1 with Cy3-labeled Hes1; conditions: Hes1 dimer formation
Description: Nunc Immobilizer™ Amino 96 well plate, white (Nalge Nunc Int.) was used for immobilizing of Hes1. The wells were incubated with 100 μL of Hes1 (10 μg mL^–1 in PBS) for 2 h at 4 °C. After the removal of protein solution, to block remaining activated units on the well, the wells were incubated for 2 h at 4 °C with 100 μL of 10 mM ethanolamine (in 100 mM Na2CO3 buffer, pH 9.6), then washed twice with 200 μL of PBST (PBS containing 0.05% Tween 20). The Hes1 bound microplate wells were incubated with 50 μL of Cy3-labeled-Hes1 in NET-N buffer (ca. 7 mg L^–1, dye/protein = 0.65) for 24 h at 4 °C. After removal of protein solution, each well was washed twice with 200 μL of PBST, then each compound solution (NET-N buffer, 50 μL) was added. After incubation for 1 h at RT in the dark, each well was washed twice with 200 μL of PBST, then dried under reduced pressure 1 h in the dark. The fluorescence intensity was measured in a microplate reader (Fluoroskan Ascent, Thermo). The Cy3 dye was excited at 530 nm and emitted at 590 nm. Usually, the assays were carried out in three individual wells, and the mean value and SD were calculated. Fig. 4 Hes1 dimer formation inhibitory activity. (a) Schematic representation of the assay for inhibitors of Hes1 dimer formation. Rat-Hes1 (residues 3-281) was exposed to Cy3-labeled Hes1. Hes1 dimer was detected through its fluorescence intensity.[40] The assay was performed after the equilibrium of exchange between immobilized Hes1 with Cy3-Hes1 and unlabeled Hes1 which was estimated to be included as unlabeled Hes1 dimers at the immobilizing stage. (b) Hes1 dimer formation inhibition by the isolated compounds 2–4. […] The complex was detected with horseradish peroxidase (HRP) conjugated anti-GST antibody. […] The ratio of dye/protein was calculated from the absorption for Cy3 (ε 150000 M-1 cm-1 at 552 nm). […] Fluorescence plate assay for inhibitors of Hes1 dimer formation Nunc ImmobilizerTM Amino 96 well plate, white (Nalge Nunc Int.) was used for immobilizing of Hes1. […] The fluorescence intensity was measured in a microplate reader (Fluoroskan Ascent, Thermo). […]

[4] = molecular target: the molecule itself; experiment: fluorescence plate assay (Hes1 dimer plate assay); Hes1 (10 μg/mL in PBS) immobilised on a Nunc Immobilizer Amino 96 well plate; Cy3-labeled Hes1 (ca. 7 mg/L) in NET-N buffer for 24 h at 4 °C; washed with PBST; fluorescence read at 530/590 nm

IC50 (Hes1 [3])	Molecule	other results
–	COc1ccc(-c2cc(=O)c3c(O[C@@H]4O[C@H](CO[C@@H]5OC[C@@H](O)[C@H](O)[C@H]5O)[C@@H](O)[C@H](O)[C@H]4O)cc(OC)cc3o2)cc1 [compound 2, agalloside]	IC50 (Hes1 [1]): 10.1 µM
–	COc1cc(O[C@@H]2O[C@H](CO[C@@H]3OC[C@@H](O)[C@H](O)[C@H]3O)[C@@H](O)[C@H](O)[C@H]2O)c2c(=O)cc(-c3ccc(OC)c(OC)c3)oc2c1 [compound 4, lethedioside A]	IC50 (Hes1 [2]): 9.5 µM
> 64 µM	COc1c(O)cc2oc3cc(O)c(CC=C(C)C)c(O)c3c(=O)c2c1CC=C(C)C [compound 5, α-Mangostine]	–
> 64 µM	COc1cc(O[C@@H]2O[C@H](CO[C@@H]3OC[C@@H](O)[C@H](O)[C@H]3O)[C@@H](O)[C@H](O)[C@H]2O)c2c(=O)cc(-c3ccc(O)cc3)oc2c1 [compound 3, genkwanin 5-O-β-D-xylosyl-β-D-glucoside]	–
3.7 µM	CCCC(=O)/C=C/C1=C(O)C(=O)c2cc(O)c(O)cc2C1=O [compound 1, lindbladione]	–
–	Rat-Hes1 (residues 3-281) (natural protein, UniProt Q04666 3-281, looked up, Cy3 label on the copy added in solution (dye/protein = 0.65); the immobilised copy is unlabelled, Hes1 (hairy and Enhancer of split 1), rat, residues 3-281; One copy was coupled to a Nunc Immobilizer Amino plate and the other was Cy3-labelled; also called Cy3-labeled Hes1; Cy3-Hes1) ADIMEKNSSSPVAATPASVNTTPDKPKTASEHRKSSKPIMEKRRRARINESLSQLKTLILDALKKDSSRHSKLEKADILEMTVKHLRNLQRAQMTAALSTDPSVLGKYRAGFSECMNEVTRFLSTCEGVNTEVRTRLLGHLANCMTQINAMTYPGQAHPALQAPPPPPPSGPGGPQHAPFAPPPPLVPIPGGAAPPPGSAPCKLGSQAGEAAKVFGGFQVVPAPDGQFAFLIPNGAFAHSGPVIPVYTSNSGTSVGPNAVSPSSGSSLTADSMWRPWRN	binding result [4]: binds
